Test results reported in US20220193111A1, “Method of Treatment” (The University Court of the University of Edinburgh, priority 2018, published 2022).

Tested on: HUVECs
Test: Immunofluorescence of transfected HUVECs
Assay type: cell-based, human
Settings: anti-miR, 48 hrs
Experimental: Cells were fixed using 4% paraformaldehyde in PBS at room temperature for 15 min. For intracellular staining, fixed cells were permeabilized using 0.5% Triton X-100 in PBS (Sigma-Aldrich) or 0.1% Saponin in PBS at room temperature for 10 min. The blocking of […] antibody activity was performed using 3% bovine serum albumin (BSA) in PBS for 1 hour. Samples were incubated with antibodies to CD31 (Abcam, ab28364, 1:50), VE-cadherin (Abcam, ab33168, 1:100), FSP-1 (Abcam, ab41532, 1:200) and COL1A1 (Abcam, ab138492, 1:100) in PBS containing 1% BSA at 4° C. overnight. Samples were washed extensively with PBS and incubated with Alexa-Fluor-488-conjugated antibodies to rabbit IgG (Life Technologies, Carlsbad, Calif., #A11070) and Alexa-Fluor-594-conjugated antibodies to rabbit IgG (Life Technologies, Carlsbad, Calif., #A11072) in DAPI with PBS with 1% BSA at room temperature for 1 h. Image analysis was performed on Zeiss LSM 780 confocal microscope.

Substance: anti-miR-148b: miR-148b inhibitor oligonucleotide; suitable inhibitor: hsa-miR-148b-3p miRCURY LNA inhibitor, CAAAGTTCTGTGATGCACTG (SEQ ID NO: 6) (commercial miRCURY LNA inhibitor, LNA positions not given here)
- CD31 and VE-cadherin immunoreactivity: pronounced decrease
- COL1A1 and FSP-1 immunoreactivity: increase
- rounded/cobblestone morphology: lost
